Where a SMILES comes first, the peptide text is derived from it. The star is where a group is joined. Biotin = O=C1N[C@H]2[C@H](CS[C@H]2CCCCC(=O)*)N1; AEA = NCCOCC(=O)O; CH2Cl = ClC*
Tests used:
KLK13 [1] = target: T1, KLK13 (Homo sapiens, UniProt Q9UKR3); assay: Inhibitory activity of CMK inhibitors / activity-based probes against KLK13; assay type: biochemical; parameters: His6 (the forward primers encode HHHHHH followed by DDDDK; the protein was purified on nickel) (N); made in house; details: progress curves method, irreversible inhibition, inhibitor 0–50 µM, Substrate 2 10 µM, KLK13 10 nM, 37 °C, pH 7.5, mean ± SD of three replicates
T1 sequence (Q9UKR3 26-277 limits assumed): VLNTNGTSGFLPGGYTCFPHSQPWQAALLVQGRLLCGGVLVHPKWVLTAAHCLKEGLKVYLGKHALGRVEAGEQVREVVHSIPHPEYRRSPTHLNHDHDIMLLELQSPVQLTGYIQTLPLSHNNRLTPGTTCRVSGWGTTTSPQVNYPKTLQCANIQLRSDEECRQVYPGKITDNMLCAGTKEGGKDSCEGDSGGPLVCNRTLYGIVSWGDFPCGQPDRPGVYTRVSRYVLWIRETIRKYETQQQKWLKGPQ
Protocol: The kinetic parameters of inhibition were determined using a progress curve model for irreversible inhibition, as described previously. […] Upon the addition of KLK13 (final concentration 10 nM), the fluorescence of the hydrolyzed substrate was monitored in each sample at excitation and emission wavelengths of 320 and 450 nm, respectively, for 1 h using a microplate reader Gemini EM (Molecular Devices, Berkshire, UK). The reactions were carried out in 200 µL of final volume of 50 mM Tris-Cl (pH 7.5) containing 1 mM EDTA and 0.5 μM heparin at 37 °C. Progress curves were fitted to the resulting data points and then kobs derived from each curve was plotted against inhibitor concentration. Final values of kass were calculated by linear regression and presented as mean ± SD of three independent replicates.

KLK13 [2] = target: T1, KLK13; assay: Detection of KLK13 using biotinylated ABPs (streptavidin-HRP Western blot); assay type: binding; parameters: His6 (the forward primers encode HHHHHH followed by DDDDK; the protein was purified on nickel) (N); made in house; host or cells: Leishmania tarentolae strain T7-TR (LEXSY), secreted to the medium; details: 1 µM probe, TNET buffer, 1 h at 37 °C; twofold dilutions of KLK13 500 to 4 ng
Protocol: Purified active KLK13 (250 ng) was preincubated with increasing concentrations of Bt-PEG-VRFR-CMK or Bt-VRFR-CMK in TNET buffer (0.1 M Tris-HCl, 150 mM NaCl, 5 mM EDTA, 0.05% Tween-20, pH 7.5) for 1 h at 37 °C. Samples were analyzed by SDS-PAGE followed by wet electrotransfer onto a PVDF membrane (GE Healthcare). Membranes were blocked in 5% BSA in TBS buffer (50 mM Tris-HCl, 0.5 M NaCl, pH 7.5) with 0.1% Tween overnight, at 4 °C, followed by incubation with 1:10,000 diluted Streptavidin-HRP (Sigma Aldrich, S2438, Poznan, Poland) for 2 h at RT. After intensive washing with TBS buffer with 0.1% Tween, the signal was developed with Pierce ECL WB substrate (Thermo Fisher Scientific) and visualized manually using AGFA films (Agfa HealthCare, Mortsel, Belgium). To establish the detection limit, decreasing amounts of active KLK13 (ranging from 3.9-500 ng) were preincubated with 1 µM Bt-PEG-VRFR-CMK in TNET buffer for 1 h at 37 °C and visualized by streptavidin-HRP Western blot as described above.

KLK13 [3] = target: T1, KLK13; assay: Kinetic parameters of substrate hydrolysis by KLK13; assay type: biochemical; parameters: His6 (the forward primers encode HHHHHH followed by DDDDK; the protein was purified on nickel) (N); made in house; host or cells: Leishmania tarentolae strain T7-TR (LEXSY), secreted to the medium; details: KLK13 1.25 × 10^−9 M; for Km / kcat: measured in triplicate, ± SD; for kcat/KM (specificity constant): calculated from kcat and KM
Protocol: The specificity constant (kcat/KM) was calculated from kcat and KM. The details of kinetic studies and the method of calculating kinetic parameters have been described previously.

KLK13 [4] = target: T1, KLK13; assay: Detection limit of KLK13 activity with the substrates; assay type: biochemical; parameters: His6 (the forward primers encode HHHHHH followed by DDDDK; the protein was purified on nickel) (N); made in house; host or cells: Leishmania tarentolae strain T7-TR (LEXSY), secreted to the medium; details: constant amount of substrate, decreasing KLK13; 50 mM Tris-Cl pH 7.5, 1 mM EDTA, 0.5 μM heparin, 37 °C
Protocol: The detection limit was established by analyzing the correlation between an increase in absorbance/fluorescence and enzyme concentration at constant quantities of each, ABZ-Val-Arg-Phe-Arg-ANB-NH2 (Substrate 1) and ABZ-[…]3-NO2)-NH2 (Substrate 2).
Int. J. Mol. Sci. 2019, 20, x FOR PEER REVIEW 2 of 2
Figure S2. Detection limit and pH optimum of KLK13 as determined for the optimized substrates.
Substrates 1 (A) and 2 (B) were titrated with decreasing amounts of KLK13 in 50 mM Tris-Cl (pH 7.5) buffer containing 1 mM EDTA and 0.5 μM heparin at 37 °C. ( C) pH dependence of KLK13. Processing […]
of ABZ-[…]3-NO 2)-NH2 by KLK13 was monitored at pH range of 3 to 10 (citric acid/sodium citrate, sodium acetate/acetic acid, MES, MOPS, HEPES and TRIS buffers).
Reaction progress was monitored by fluorescence detection at the excitation and emission wavelength […]
(1 picture or pasted object on this page, not shown here)

KLK13 [5] = target: T1, KLK13; assay: Site of hydrolysis by RP-HPLC with fluorescence detection and MS; assay type: biochemical; parameters: His6 (the forward primers encode HHHHHH followed by DDDDK; the protein was purified on nickel) (N); made in house; host or cells: Leishmania tarentolae strain T7-TR (LEXSY), secreted to the medium; details: RP-HPLC with fluorescence detection coupled to MS
Protocol: The site of hydrolysis was determined after each step of deconvolution of primed site library and for both final substrates (1 and 2) by RP-HPLC monitored by fluorescence detection and MS.

[6] = system: cathepsins (CatX, CatL, CatS, CatD, CatH, CatB); assay: Selectivity assessment of substrate 2: cathepsins; assay type: biochemical; details: substrate 6.15 μM, enzymes 1.25 nM, 37 °C, 50 mM Tris-Cl pH 7.5, 1 mM EDTA, 0.5 μM heparin; fluorescence 450 nm
Protocol: (§1) Substrate 2 (6.15 μM) was incubated with tested kallikreins (KLK1, KLK2, KLK3, KLK4, KLK6, KLK8, KLK12, KLK13) and cathepsins (CatX, CatL, CatS, CatD, CatH, CatB), all at a concentration of 1.25 nM, at 37 °C in 50 mM Tris-Cl (pH 7.5) buffer containing 1 mM EDTA and 0.5 μM heparin. Proteolytic activity was assayed as an increase in fluorescence at 450 nm.

[7] = system: KLK1, KLK2, KLK3, KLK4, KLK6, KLK8, KLK12; assay: Selectivity assessment of substrate 2: other kallikreins; assay type: biochemical; details: substrate 6.15 μM, enzymes 1.25 nM, 37 °C, 50 mM Tris-Cl pH 7.5, 1 mM EDTA, 0.5 μM heparin; fluorescence 450 nm
Protocol: as §1

KLK13 [8] = target: T1, KLK13; assay: pH dependence of KLK13 activity; assay type: biochemical; parameters: His6 (the forward primers encode HHHHHH followed by DDDDK; the protein was purified on nickel) (N); made in house; host or cells: Leishmania tarentolae strain T7-TR (LEXSY), secreted to the medium; details: KLK13 1.25 nM, substrate 6.15 µM, 37 °C, buffers pH 3 to 10
Protocol: The pH dependence of KLK13 (1.25 nM) was established at 37 °C using substrate 2 (6.15 µM) in following buffers: citric acid/sodium citrate (pH 3), sodium acetate/acetic acid (pH 4 and 5), MES (pH 6), MOPS (pH 7), HEPES (pH 8) and TRIS (pH 9 and 10).

| Molecule | Km (KLK13 [3]) [µM] | kcat (KLK13 [3]) [s⁻¹] | kcat/KM (specificity constant) (KLK13 [3]) | further results |
| --- | --- | --- | --- | --- |
| CC(C)[C@H](NC(=O)COCCNC(=O)CCCC[C@@H]1SC[C@@H]2NC(=O)N[C@@H]21)C(=O)N[C@@H](CCCNC(=N)N)C(=O)N[C@@H](Cc1ccccc1)C(=O)N[C@@H](CCCNC(=N)N)C(=O)CCl [Bt-PEG-VRFR-CMK, Bt-PEG-Val-Arg-Phe-Arg-CMK] ({Biotin-AEA}-VRFR-CH2Cl) | – | – | – | kass (KLK13 [1]): 204 ± 23 M⁻¹ s⁻¹; Detection limit of purified KLK13 in Western blot (KLK13 [2]): ~15 ng |
| CC(C)[C@H](NC(=O)CCCC[C@@H]1SC[C@@H]2NC(=O)N[C@@H]21)C(=O)N[C@@H](CCCNC(=N)N)C(=O)N[C@@H](Cc1ccccc1)C(=O)N[C@@H](CCCNC(=N)N)C(=O)CCl [Bt-VRFR-CMK, Bt-Val-Arg-Phe-Arg-CMK] (Biotin-VRFR-CH2Cl) | – | – | – | kass (KLK13 [1]): 49 ± 2 M⁻¹ s⁻¹ |
| ABZ-VRFRSTE-Tyr(3-NO2)-NH2 [optimized substrate differing only at the P3′ position (Glu)] | 24.7 ± 5.8 | 91.11 ± 11.61 | (3.69 ± 0.40) ×10^6 M^−1·s^−1 | – |
| ABZ-VRFRSTG-Tyr(3-NO2)-NH2 [optimized substrate differing only at the P3′ position (Gly)] | 19.7 ± 3 | 169.40 ± 12.40 | (8.62 ± 0.37) ×10^6 M^−1·s^−1 | – |
| ABZ-VRFRSTS-Tyr(3-NO2)-NH2 [optimized substrate differing only at the P3′ position (Ser)] | 14.7 ± 2.2 | 113.12 ± 6.87 | (7.71 ± 0.67) ×10^6 M^−1·s^−1 | – |
| ABZ-Val-Arg-Phe-Arg-ANB-NH2 [Substrate 1, kinetically preferred non-primed fluorogenic/chromogenic KLK13 substrate] | 17.8 ± 2.8 | 94.36 ± 3.05 | over 5 × 10^6 M^−1·s^−1 | kcat/KM (specificity constant) (KLK13 [3]; listed as ABZ-VRFR-ANB-NH2 (1)): (5.31 ± 0.34) ×10^6 M^−1·s^−1; KLK13 concentration at which fluorescence increase was still detectable (KLK13 [4]): 1.56 nM |
| ABZ-Val-Arg-Phe-Arg-Ser-Thr-Gln-Tyr(3-NO2)-NH2 [Substrate 2, internally quenched fluorogenic KLK13 substrate spanning P4-P3′] | 10 ± 1.9 | 96.43 ± 7.15 | – | kcat/KM (specificity constant) (KLK13 [3]; listed as ABZ-VRFRSTQ-Tyr(3-NO2)-NH2 (2)): (9.64 ± 1.08) ×10^6 M^−1·s^−1; kcat/KM (specificity constant) (KLK13 [3]; listed as ABZ-Val-Arg-Phe-Arg-Ser-Thr-Gln-Tyr(3-NO2)-NH2): ≈ 10^7 M^−1·s^−1; kcat/KM (specificity constant) (KLK13 [3]; listed as substrate 2): ~1e+07 M⁻¹ s⁻¹; Site of hydrolysis by KLK13 (KLK13 [5]): exclusively hydrolyzed at the Arg-Ser peptide bond; Hydrolysis by cathepsins [6]: None of tested cathepsins hydrolyzed; KLK13 concentration at which fluorescence increase was still detectable (KLK13 [4]): 0.0488 nM; Cleavage by other kallikreins relative to the activity of KLK13 [7]: ≤ 20%; Optimal pH for processing of the substrate by KLK13 (KLK13 [8]): 9 |

From article PMC6479877, “Development of Chemical Tools to Monitor Human Kallikrein 13 (KLK13) Activity” (International Journal of Molecular Sciences, 2019)
